Laboratory results from PubChem BioAssay (NCI).
Where “and” joins values, the source holds several entries; their conditions need not be identical. Equal values may be shown once.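 Method: 48-hour compound exposure of cells in 96-well plates, five concentrations, linear interpolation of endpoints. At the GI50, growth is halved. TGI is the concentration that stops growth completely.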

Experiments:
Assay in all cases: DTP human tumour cell line panel, 48 h
[1] = tested on: CCRF-CEM leukemia
[2] = tested on: MALME-3M melanoma
[3] = tested on: OVCAR-4 ovarian
[4] = tested on: OVCAR-8 ovarian
[5] = tested on: RXF 393 renal
[6] = tested on: SF-539 CNS
[7] = tested on: SK-MEL-28 melanoma
[8] = tested on: SN12C renal
[9] = tested on: SNB-78 CNS
[10] = tested on: MDA-N

SMILES	TGI [1] [µM]	TGI [2] [µM]	TGI [3] [µM]	TGI [4] [µM]	TGI [5] [µM]	TGI [6] [µM]	TGI [7] [µM]	TGI [8]	TGI [9] [µM]	GI50 [10] [µM]	TGI [10] [µM]	GI50 [7] [µM]	GI50 [9] [pM]
COc1ccc(Sc2ccccc2[N+](=O)[O-])cc1	> 100	> 100	> 100	> 100	78.7	> 100	46.4	> 100 µM	98.4				
Cn1c(=O)c(C#N)c(O)c2cc3ccccc3nc21	> 100	> 100	> 100	> 100	> 100	> 100	> 100	> 100 µM	> 100				
Nc1cc(O)c2cc(N=Nc3ccc(N=Nc4ccc(N=Nc5ccc6cc(S(=O)(=O)O)cc(S(=O)(=O)O)c6c5)c5ccccc45)c4cc(S(=O)(=O)O)ccc34)c(S(=O)(=O)O)cc2c1	> 100	> 100	> 100	> 100	> 100	> 100	> 100	> 100 µM	> 100				
COC1=C(C)C(=O)C2=C(C1=O)C1C3CC4=C(C(=O)C(OC)=C(C)C4=O)C(CNC(=O)C(C)=O)N3C(C#N)C(C2)N1C (configuration not stated)					0.0161			0.348 µM and 0.144 µM		0.00351	0.026	0.000169	57.9
Cc1ccc(C)c(C(=O)CC2OC(O)C(Cl)C2Cl)c1 (configuration not stated)	> 100	> 100	> 100	33.6	86	53.2	> 100	> 100 µM	> 100				
Cc1c(N(Cc2ccccc2)Cc2ccccc2)nc(S(C)(=O)=O)nc1S(C)(=O)=O	5.15	17.6		3.29	3.1	25.7		4.28 µM	4.81				
NS(=O)(=O)C1CCCCC1C(=O)NNC(=O)C(=O)Nc1nc(=S)[nH][nH]1 (configuration not stated)	> 100		> 100	> 100	> 100	> 100	> 100	> 100 µM	> 100				
